This assay concerns the target PRMT5/MEP50 complex (Homo sapiens, UniProt O14744). The assay can be described thus: Chemiluminescent Assay: A PRMT5 chemiluminescent assay was used to measure the […] activity of PRMT5. Biotinylated histone peptides were synthesized and attached to 384-well plates. Compound serial dilutions were performed and added to the assay plate. Histone H4 monomethyl R3 antibody was obtained from Abcam. A master mix for each well was prepared and human PRMT5/MEP50 (expressed in HEK293 cells) diluted in assay buffer to a concentration of 5 ng/μL. The reaction was incubated and slowly rotated for 60 minutes at the point of PRMT5/MEP50 addition. The supernatant from the wells was removed and blocking buffer was added to each well and rotated for 10 minutes. The primary antibody was diluted and added to every well for 60 minutes, before it was removed and the wells washed. The horse radish peroxidase (HRP)-coupled secondary antibody was diluted and added to each well with an incubation time of 30 minutes. The HRP chemiluminescent substrate was added to every well. The plate was read on a Flourstar Omega BMG Labtech instrument (Ortenberg, Germany) and the analysis of IC50 was performed using the Flourstar Omega BMG Labtech software. It counts as biochemical.

Chain of PRMT5/MEP50 complex (O14744 whole entry): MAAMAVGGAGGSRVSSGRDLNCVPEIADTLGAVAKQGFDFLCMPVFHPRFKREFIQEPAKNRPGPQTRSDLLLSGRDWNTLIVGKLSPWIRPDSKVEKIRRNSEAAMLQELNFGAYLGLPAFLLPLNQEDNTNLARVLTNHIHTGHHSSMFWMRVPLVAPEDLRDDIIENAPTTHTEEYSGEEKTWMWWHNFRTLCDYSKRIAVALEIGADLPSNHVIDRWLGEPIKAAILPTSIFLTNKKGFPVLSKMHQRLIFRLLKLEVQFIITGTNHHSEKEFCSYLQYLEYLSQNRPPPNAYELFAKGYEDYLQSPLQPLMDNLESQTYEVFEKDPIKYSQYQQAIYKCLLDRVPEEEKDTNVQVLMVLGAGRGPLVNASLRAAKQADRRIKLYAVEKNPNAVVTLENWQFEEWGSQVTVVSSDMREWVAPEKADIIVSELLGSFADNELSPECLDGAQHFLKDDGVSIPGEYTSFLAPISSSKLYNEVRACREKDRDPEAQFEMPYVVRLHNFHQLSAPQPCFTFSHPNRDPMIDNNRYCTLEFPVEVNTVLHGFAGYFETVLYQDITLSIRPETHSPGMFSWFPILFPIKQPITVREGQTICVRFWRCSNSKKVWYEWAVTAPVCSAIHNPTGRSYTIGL
Chain of PRMT5/MEP50 complex (Q9BQA1 whole entry, further chain): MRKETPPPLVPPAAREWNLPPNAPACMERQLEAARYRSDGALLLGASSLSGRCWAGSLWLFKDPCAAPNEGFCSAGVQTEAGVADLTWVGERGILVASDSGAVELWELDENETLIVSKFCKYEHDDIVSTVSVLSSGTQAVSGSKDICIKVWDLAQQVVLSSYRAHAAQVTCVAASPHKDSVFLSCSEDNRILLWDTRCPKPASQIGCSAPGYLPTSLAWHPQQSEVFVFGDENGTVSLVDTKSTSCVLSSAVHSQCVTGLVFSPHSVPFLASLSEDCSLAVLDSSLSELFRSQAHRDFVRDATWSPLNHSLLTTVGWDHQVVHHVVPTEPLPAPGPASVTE

`CN1CCN(c2nc(NC3CCC3)cc(C(=O)NCC(O)CN3CCc4[nH]c5ccccc5c4C3)n2)CC1` (centres undefined) displayed an IC50 of 528 nM. The figure for `Cn1c2c(c3ccccc31)CN(CC(O)CNC(=O)c1ccc(C(=O)N3C4CCC3COC4)cc1)CC2` (centres undefined) is 3340 nM; for `O=C(NCC(O)CN1CCc2[nH]c3ccccc3c2C1)c1cc(NC2CCC2)ncn1` (centres undefined) it is 1690 nM. To `O=C(NCC(O)CN1CCc2[nH]c3ccccc3c2C1)c1ccc(C(=O)N2C3CCC2COC3)cc1` (centres undefined) belongs 1730 nM.

Source of the values: ChEMBL document CHEMBL5729023, “Tricyclic compounds for use in treatment of proliferative disorders” (2022).
